Measured values as given in US9980943B2, “Methods of treating muscular dystrophy” (BOARD OF REGENTS OF THE NEVADA SYSTEM OF HIGHER EDUCATION, …, priority 2013, dated 2018).

Tests used:
Type in all cases: cell-based, mouse
[1] = system: β-galactosidase in CMV-LacZ C2C12 myotubes; experiment: CMV-LacZ secondary screen in C2C12 myotubes (β-Gal stabilizing assay); details: for CMV-LACZ in Myotubes (β-galactosidase activity relative to DMSO): CMV-LacZ C2C12 myotubes, 96-well format
In short: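 A secondary screen identifies compounds that stabilize β-gal independently of the native promoter, using CMV-LacZ C2C12 cells. Curves span 0.5–40 μM at six levels, in duplicate.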

[2] = system: α7 integrin (LacZ reporter in α7βgal+/− myoblasts); experiment: Myoblast α7+/LacZ integrin FDG assay (Burkin assay in myoblasts, 96-well); details: α7+/LacZ myoblasts, 96-well
[3] = system: α7 integrin (LacZ reporter in α7+/LacZ myotubes); experiment: Myotube α7 integrin FDG assay (Burkin assay in myotubes, 96-well); details: myotubes
[4] = 5 uM, C2C12 CMV-LacZ myotubes, fold relative to DMSO
[5] = 10 uM, C2C12 CMV-LacZ myotubes, fold relative to DMSO
[6] = 20 uM, C2C12 CMV-LacZ myotubes, fold relative to DMSO
[7] = 40 uM, C2C12 CMV-LacZ myotubes, fold relative to DMSO

Compound	CMV-LACZ in Myotubes (β-galactosidase activity relative to DMSO) ([1]; 5 uM)	CMV-LACZ in Myotubes (β-galactosidase activity relative to DMSO) ([1]; 10 uM)	CMV-LACZ in Myotubes (β-galactosidase activity relative to DMSO) ([1]; 20 uM)	CMV-LACZ in Myotubes (β-galactosidase activity relative to DMSO) ([1]; 40 uM)	Burkin Assay in Myoblasts, value relative to DMSO ([2]; 0.5 uM)	Burkin Assay in Myoblasts, value relative to DMSO ([2]; 1 uM)	Burkin Assay in Myoblasts, value relative to DMSO ([2]; 5 uM)	Burkin Assay in Myoblasts, value relative to DMSO ([2]; 10 uM)	Burkin Assay in Myoblasts, value relative to DMSO ([2]; 20 uM)	Burkin Assay in Myoblasts, value relative to DMSO ([2]; 40 uM)	Burkin Assay in Myotubes (signal relative to DMSO) ([3]; 0.5 uM)	Burkin Assay in Myotubes (signal relative to DMSO) ([3]; 1 uM)	Burkin Assay in Myotubes (signal relative to DMSO) ([3]; 5 uM)	Burkin Assay in Myotubes (signal relative to DMSO) ([3]; 10 uM)	Burkin Assay in Myotubes (signal relative to DMSO) ([3]; 20 uM)	Burkin Assay in Myotubes (signal relative to DMSO) ([3]; 40 uM)	CMV-LACZ in Myotubes, signal relative to DMSO [1, 4]	CMV-LACZ in Myotubes, signal relative to DMSO [1, 5]	CMV-LACZ in Myotubes, signal relative to DMSO [1, 6]	CMV-LACZ in Myotubes, signal relative to DMSO [1, 7]	further results
O=C(Nc1ccc(N2CCN(C(=O)c3ccccc3F)CC2)cc1)c1cncc(Br)c1 [MLS001060533-01]	0.8358	0.7789	0.7716	0.6871	0.9049	0.9915	1.033	1.101	1.397	1.22	0.9464	1.208	1.318	1.52	1.342	1.117					
COc1cc2c(cc1NC(=O)Cc1ccc(C)cc1)oc1ccccc12 [MLS000579238-01]																					fold induction at 5 µM ([1]; Mus musculus, C2C12, read-out: CMV-LACZ in Myotubes, signal relative to DMSO, 5 uM, C2C12 CMV-LacZ myotubes, fold relative to DMSO): 0.815; fold induction at 10 µM ([1]; Mus musculus, C2C12, read-out: CMV-LACZ in Myotubes, signal relative to DMSO, 10 uM, C2C12 CMV-LacZ myotubes, fold relative to DMSO): 0.872; fold induction at 20 µM ([1]; Mus musculus, C2C12, read-out: CMV-LACZ in Myotubes, signal relative to DMSO, 20 uM, C2C12 CMV-LacZ myotubes, fold relative to DMSO): 0.83; fold induction at 40 µM ([1]; Mus musculus, C2C12, read-out: CMV-LACZ in Myotubes, signal relative to DMSO, 40 uM, C2C12 CMV-LacZ myotubes, fold relative to DMSO): 0.944; fold induction at 0.5 µM ([2]; Mus musculus, Myoblast, 48 h, 0.5 uM, read-out: Burkin Assay in Myoblasts, signal relative to DMSO): 0.961; fold induction at 1 µM ([2]; Mus musculus, Myoblast, 48 h, 1 uM, read-out: Burkin Assay in Myoblasts, signal relative to DMSO): 1.11; fold induction at 5 µM ([2]; Mus musculus, Myoblast, 48 h, 5 uM, read-out: Burkin Assay in Myoblasts, signal relative to DMSO): 1.17; fold induction at 10 µM ([2]; Mus musculus, Myoblast, 48 h, 10 uM, read-out: Burkin Assay in Myoblasts, signal relative to DMSO): 1.3; fold induction at 20 µM ([2]; Mus musculus, Myoblast, 48 h, 20 uM, read-out: Burkin Assay in Myoblasts, signal relative to DMSO): 1.11; fold induction at 40 µM ([2]; Mus musculus, Myoblast, 48 h, 40 uM, read-out: Burkin Assay in Myoblasts, signal relative to DMSO): 0.912; fold induction at 0.5 µM ([3]; Mus musculus, Myotube, 0.5 uM, read-out: Burkin Assay in Myotubes, α7 integrin LacZ reporter signal relative to DMSO): 0.951; fold induction at 1 µM ([3]; Mus musculus, Myotube, 1 uM, read-out: Burkin Assay in Myotubes, α7 integrin LacZ reporter signal relative to DMSO): 1.11; fold induction at 5 µM ([3]; Mus musculus, Myotube, 5 uM, read-out: Burkin Assay in Myotubes, α7 integrin LacZ reporter signal relative to DMSO): 1.01; fold induction at 10 µM ([3]; Mus musculus, Myotube, 10 uM, read-out: Burkin Assay in Myotubes, α7 integrin LacZ reporter signal relative to DMSO): 1.1; fold induction at 20 µM ([3]; Mus musculus, Myotube, 20 uM, read-out: Burkin Assay in Myotubes, α7 integrin LacZ reporter signal relative to DMSO): 0.856; fold induction at 40 µM ([3]; Mus musculus, Myotube, 40 uM, read-out: Burkin Assay in Myotubes, α7 integrin LacZ reporter signal relative to DMSO): 0.771
COc1ccc(CCNC(=O)c2cc(-c3cc(C)ccc3O)n[nH]2)cc1OC [MLS000552080-01]																	1.197	1.0688	0.9522	0.8044	Burkin Assay in Myoblasts, signal relative to DMSO ([2]; 0.5 uM): 0.9689; Burkin Assay in Myoblasts, signal relative to DMSO ([2]; 1 uM): 0.9784; Burkin Assay in Myoblasts, signal relative to DMSO ([2]; 5 uM): 1.056; Burkin Assay in Myoblasts, signal relative to DMSO ([2]; 10 uM): 1.089; Burkin Assay in Myoblasts, signal relative to DMSO ([2]; 20 uM): 0.9333; Burkin Assay in Myoblasts, signal relative to DMSO ([2]; 40 uM): 0.8855; Burkin Assay in Myotubes, α7 integrin LacZ reporter signal relative to DMSO ([3]; 0.5 uM): 0.9672; Burkin Assay in Myotubes, α7 integrin LacZ reporter signal relative to DMSO ([3]; 1 uM): 1.15; Burkin Assay in Myotubes, α7 integrin LacZ reporter signal relative to DMSO ([3]; 5 uM): 1.214; Burkin Assay in Myotubes, α7 integrin LacZ reporter signal relative to DMSO ([3]; 10 uM): 1.24; Burkin Assay in Myotubes, α7 integrin LacZ reporter signal relative to DMSO ([3]; 20 uM): 1.0378; Burkin Assay in Myotubes, α7 integrin LacZ reporter signal relative to DMSO ([3]; 40 uM): 0.9286
O=C(Nc1ccccc1)Nc1ccc(Cl)c(S(=O)(=O)N2CCOCC2)c1 [MLS000773700-01]	1.126	1.1166	0.929	0.4092	0.9335	1.0257	0.9059	0.8657	0.9227	0.8721	1.008	1.019	0.7118	0.9516	0.9895	0.472					
COc1ccc(C)cc1NC(=O)c1ccc2c(O)c(S(=O)(=O)c3ccccc3)c(=O)[nH]c2c1 [MLS001122718-01]																	0.8862	0.9662	0.9567	0.89	Burkin Assay in Myoblasts, signal relative to DMSO ([2]; 0.5 uM): 1.1056; Burkin Assay in Myoblasts, signal relative to DMSO ([2]; 1 uM): 1.041; Burkin Assay in Myoblasts, signal relative to DMSO ([2]; 5 uM): 1.033; Burkin Assay in Myoblasts, signal relative to DMSO ([2]; 10 uM): 0.9092; Burkin Assay in Myoblasts, signal relative to DMSO ([2]; 20 uM): 0.9923; Burkin Assay in Myoblasts, signal relative to DMSO ([2]; 40 uM): 0.9332; Burkin Assay in Myotubes, α7 integrin LacZ reporter signal relative to DMSO ([3]; 0.5 uM): 1.011; Burkin Assay in Myotubes, α7 integrin LacZ reporter signal relative to DMSO ([3]; 1 uM): 0.9435; Burkin Assay in Myotubes, α7 integrin LacZ reporter signal relative to DMSO ([3]; 5 uM): 1.069; Burkin Assay in Myotubes, α7 integrin LacZ reporter signal relative to DMSO ([3]; 10 uM): 1.106; Burkin Assay in Myotubes, α7 integrin LacZ reporter signal relative to DMSO ([3]; 20 uM): 1.089; Burkin Assay in Myotubes, α7 integrin LacZ reporter signal relative to DMSO ([3]; 40 uM): 0.9804
COCc1c(C(=O)OCc2nc3ccsc3c(=O)[nH]2)oc2ccccc12 [MLS002163386-01]	0.9749	1.196	0.9465	1.066	1.0508	0.9023	1.034	0.888	1.014	0.9388	1.104	1.048	1.112	1.064	1.064	1.02					
NS(=O)(=O)c1ccc(NC(=O)c2ccc(CNS(=O)(=O)c3cc(C(F)(F)F)ccc3Cl)cc2)cc1 [MLS000393110-01]																	1.103	0.9673	1.0745	0.8895	Burkin Assay in Myoblasts, signal relative to DMSO ([2]; 0.5 uM): 0.9045; Burkin Assay in Myoblasts, signal relative to DMSO ([2]; 1 uM): 0.9273; Burkin Assay in Myoblasts, signal relative to DMSO ([2]; 5 uM): 1.074; Burkin Assay in Myoblasts, signal relative to DMSO ([2]; 10 uM): 1.088; Burkin Assay in Myoblasts, signal relative to DMSO ([2]; 20 uM): 1.012; Burkin Assay in Myoblasts, signal relative to DMSO ([2]; 40 uM): 0.71; Burkin Assay in Myotubes, α7 integrin LacZ reporter signal relative to DMSO ([3]; 0.5 uM): 1.139; Burkin Assay in Myotubes, α7 integrin LacZ reporter signal relative to DMSO ([3]; 1 uM): 0.9276; Burkin Assay in Myotubes, α7 integrin LacZ reporter signal relative to DMSO ([3]; 5 uM): 1.022; Burkin Assay in Myotubes, α7 integrin LacZ reporter signal relative to DMSO ([3]; 10 uM): 0.9816; Burkin Assay in Myotubes, α7 integrin LacZ reporter signal relative to DMSO ([3]; 20 uM): 0.6726; Burkin Assay in Myotubes, α7 integrin LacZ reporter signal relative to DMSO ([3]; 40 uM): 0.8173
C=CCN(CC=C)C(=O)c1ccc(OC2CCN(S(=O)(=O)N(C)C)CC2)cc1 [MLS000693729-01]					0.9069	0.7902	0.8647	0.9088	0.9136	0.9194	0.8219	0.7707	1.119	1.144	0.9682	1.056	0.9722	1.057	0.9031	0.879	
